Laboratory results taken from patent US20050065062A1, “Method of formulating a pharmaceutical composition” (3M Innovative Properties Company, priority 2003, published 2005).

Assays:
[1] = Franz diffusion cell, membrane diffusion across hairless mouse skin; type: in vitro ADME; settings: for relative order for membrane diffusion rate: ranking of excipients
Description: Diffusion of the compounds through hairless mouse skin into phosphate buffer in a Franz cell was carried out and measured as described in Example 1, with Sudan I being used in place of Fat Brown RR.

[2] = Franz diffusion cell, membrane diffusion across poly(dimethylsiloxane) membrane
[3] = Table 3, saturated solution in alpha-terpineol, 0 hours
[4] = Table 3, saturated solution in alpha-terpineol, 24 hours
[5] = Table 3, saturated solution in isostearic acid, 0 hours
[6] = Table 3, saturated solution in isostearic acid, 24 hours
[7] = Table 3, saturated solution in propylene glycol, 0 hours
[8] = Table 3, saturated solution in propylene glycol, 24 hours
[9] = Table 3, saturated solution in tetraglycol, 0 hours
[10] = Table 3, saturated solution in tetraglycol, 24 hours
[11] = saturated solution in alpha-terpineol, 0 hours
[12] = saturated solution in alpha-terpineol, 24 hours
[13] = saturated solution in isostearic acid, 0 hours
[14] = saturated solution in isostearic acid, 24 hours
[15] = saturated solution in propylene glycol, 0 hours
[16] = saturated solution in propylene glycol, 24 hours
[17] = saturated solution in tetraglycol, 0 hours
[18] = saturated solution in tetraglycol, 24 hours

C[C@]12CC[C@H]3[C@@H](CCC4=CC(=O)CC[C@@]43C)[C@@H]1CC[C@@H]2O [Testosterone, testosterone]
CUMULATIVE AMOUNT OF COMPOUND DIFFUSED ACROSS SKIN [1, 3]: 0 μg/10 mL | CUMULATIVE AMOUNT OF COMPOUND DIFFUSED ACROSS SKIN ([1]; Table 3, saturated solution in alpha-terpineol, 6 hours): 605 μg/10 mL | CUMULATIVE AMOUNT OF COMPOUND DIFFUSED ACROSS SKIN ([1]; Table 3, saturated solution in alpha-terpineol, 12 hours): 1585 μg/10 mL | CUMULATIVE AMOUNT OF COMPOUND DIFFUSED ACROSS SKIN ([1]; Table 3, saturated solution in alpha-terpineol, 18 hours): 3043 μg/10 mL | CUMULATIVE AMOUNT OF COMPOUND DIFFUSED ACROSS SKIN [1, 4]: 4414 μg/10 mL | CUMULATIVE AMOUNT OF COMPOUND DIFFUSED ACROSS SKIN [1, 5]: 0 μg/10 mL | CUMULATIVE AMOUNT OF COMPOUND DIFFUSED ACROSS SKIN ([1]; Table 3, saturated solution in isostearic acid, 6 hours): 74 μg/10 mL | CUMULATIVE AMOUNT OF COMPOUND DIFFUSED ACROSS SKIN ([1]; Table 3, saturated solution in isostearic acid, 12 hours): 192 μg/10 mL | CUMULATIVE AMOUNT OF COMPOUND DIFFUSED ACROSS SKIN ([1]; Table 3, saturated solution in isostearic acid, 18 hours): 418 μg/10 mL | CUMULATIVE AMOUNT OF COMPOUND DIFFUSED ACROSS SKIN [1, 6]: 740 μg/10 mL | CUMULATIVE AMOUNT OF COMPOUND DIFFUSED ACROSS SKIN [1, 7]: 0 μg/10 mL | CUMULATIVE AMOUNT OF COMPOUND DIFFUSED ACROSS SKIN ([1]; Table 3, saturated solution in propylene glycol, 6 hours): 79 μg/10 mL | CUMULATIVE AMOUNT OF COMPOUND DIFFUSED ACROSS SKIN ([1]; Table 3, saturated solution in propylene glycol, 12 hours): 216 μg/10 mL | CUMULATIVE AMOUNT OF COMPOUND DIFFUSED ACROSS SKIN ([1]; Table 3, saturated solution in propylene glycol, 18 hours): 546 μg/10 mL | CUMULATIVE AMOUNT OF COMPOUND DIFFUSED ACROSS SKIN [1, 8]: 956 μg/10 mL | CUMULATIVE AMOUNT OF COMPOUND DIFFUSED ACROSS SKIN [1, 9]: 0 μg/10 mL | CUMULATIVE AMOUNT OF COMPOUND DIFFUSED ACROSS SKIN ([1]; Table 3, saturated solution in tetraglycol, 6 hours): 23 μg/10 mL | CUMULATIVE AMOUNT OF COMPOUND DIFFUSED ACROSS SKIN ([1]; Table 3, saturated solution in tetraglycol, 12 hours): 46 μg/10 mL | CUMULATIVE AMOUNT OF COMPOUND DIFFUSED ACROSS SKIN ([1]; Table 3, saturated solution in tetraglycol, 18 hours): 81 μg/10 mL | CUMULATIVE AMOUNT OF COMPOUND DIFFUSED ACROSS SKIN [1, 10]: 119 μg/10 mL | relative order for membrane diffusion rate [1]: alpha-terpineol>propylene glycol>isostearic acid>tetraglycol | CUMULATIVE AMOUNT OF COMPOUND DIFFUSED ACROSS SKIN [1, 11]: 0 µg/mL | CUMULATIVE AMOUNT OF COMPOUND DIFFUSED ACROSS SKIN ([1]; saturated solution in alpha-terpineol, 6 hours): 605 µg/mL | CUMULATIVE AMOUNT OF COMPOUND DIFFUSED ACROSS SKIN ([1]; saturated solution in alpha-terpineol, 12 hours): 1585 µg/mL | CUMULATIVE AMOUNT OF COMPOUND DIFFUSED ACROSS SKIN ([1]; saturated solution in alpha-terpineol, 18 hours): 3043 µg/mL | CUMULATIVE AMOUNT OF COMPOUND DIFFUSED ACROSS SKIN [1, 12]: 4414 µg/mL | CUMULATIVE AMOUNT OF COMPOUND DIFFUSED ACROSS SKIN [1, 13]: 0 µg/mL | CUMULATIVE AMOUNT OF COMPOUND DIFFUSED ACROSS SKIN ([1]; saturated solution in isostearic acid, 6 hours): 74 µg/mL | CUMULATIVE AMOUNT OF COMPOUND DIFFUSED ACROSS SKIN ([1]; saturated solution in isostearic acid, 12 hours): 192 µg/mL | CUMULATIVE AMOUNT OF COMPOUND DIFFUSED ACROSS SKIN ([1]; saturated solution in isostearic acid, 18 hours): 418 µg/mL | CUMULATIVE AMOUNT OF COMPOUND DIFFUSED ACROSS SKIN [1, 14]: 740 µg/mL | CUMULATIVE AMOUNT OF COMPOUND DIFFUSED ACROSS SKIN [1, 15]: 0 µg/mL | CUMULATIVE AMOUNT OF COMPOUND DIFFUSED ACROSS SKIN ([1]; saturated solution in propylene glycol, 6 hours): 79 µg/mL | CUMULATIVE AMOUNT OF COMPOUND DIFFUSED ACROSS SKIN ([1]; saturated solution in propylene glycol, 12 hours): 216 µg/mL | CUMULATIVE AMOUNT OF COMPOUND DIFFUSED ACROSS SKIN ([1]; saturated solution in propylene glycol, 18 hours): 546 µg/mL | CUMULATIVE AMOUNT OF COMPOUND DIFFUSED ACROSS SKIN [1, 16]: 956 µg/mL | CUMULATIVE AMOUNT OF COMPOUND DIFFUSED ACROSS SKIN [1, 17]: 0 µg/mL | CUMULATIVE AMOUNT OF COMPOUND DIFFUSED ACROSS SKIN ([1]; saturated solution in tetraglycol, 6 hours): 23 µg/mL | CUMULATIVE AMOUNT OF COMPOUND DIFFUSED ACROSS SKIN ([1]; saturated solution in tetraglycol, 12 hours): 46 µg/mL | CUMULATIVE AMOUNT OF COMPOUND DIFFUSED ACROSS SKIN ([1]; saturated solution in tetraglycol, 18 hours): 81 µg/mL | CUMULATIVE AMOUNT OF COMPOUND DIFFUSED ACROSS SKIN [1, 18]: 119 µg/mL

CCN(CCO)c1ccc(N=Nc2ccc([N+](=O)[O-])cc2)cc1 [Disperse Red 1]
relative order for membrane diffusion rate ([2]; ranking of excipients): alpha-terpineol>isostearic acid>tetraglycol | CUMULATIVE AMOUNT OF COMPOUND DIFFUSED ACROSS SKIN [2, 11]: 0 μg/10 mL | CUMULATIVE AMOUNT OF COMPOUND DIFFUSED ACROSS SKIN [2, 12]: 11 μg/10 mL | CUMULATIVE AMOUNT OF COMPOUND DIFFUSED ACROSS SKIN ([2]; saturated solution in alpha-terpineol, 48 hours): 25 μg/10 mL | CUMULATIVE AMOUNT OF COMPOUND DIFFUSED ACROSS SKIN ([2]; saturated solution in alpha-terpineol, 72 hours): 45 μg/10 mL | CUMULATIVE AMOUNT OF COMPOUND DIFFUSED ACROSS SKIN [2, 13]: 0 μg/10 mL | CUMULATIVE AMOUNT OF COMPOUND DIFFUSED ACROSS SKIN [2, 14]: 3 μg/10 mL | CUMULATIVE AMOUNT OF COMPOUND DIFFUSED ACROSS SKIN ([2]; saturated solution in isostearic acid, 48 hours): 6 μg/10 mL | CUMULATIVE AMOUNT OF COMPOUND DIFFUSED ACROSS SKIN ([2]; saturated solution in isostearic acid, 72 hours): 12 μg/10 mL | CUMULATIVE AMOUNT OF COMPOUND DIFFUSED ACROSS SKIN [2, 15]: 0 μg/10 mL | CUMULATIVE AMOUNT OF COMPOUND DIFFUSED ACROSS SKIN [2, 16]: 1 μg/10 mL | CUMULATIVE AMOUNT OF COMPOUND DIFFUSED ACROSS SKIN ([2]; saturated solution in propylene glycol, 48 hours): 4 μg/10 mL | CUMULATIVE AMOUNT OF COMPOUND DIFFUSED ACROSS SKIN ([2]; saturated solution in propylene glycol, 72 hours): 10 μg/10 mL | CUMULATIVE AMOUNT OF COMPOUND DIFFUSED ACROSS SKIN [2, 17]: 0 μg/10 mL | CUMULATIVE AMOUNT OF COMPOUND DIFFUSED ACROSS SKIN [2, 18]: 1 μg/10 mL | CUMULATIVE AMOUNT OF COMPOUND DIFFUSED ACROSS SKIN ([2]; saturated solution in tetraglycol, 48 hours): 3 μg/10 mL | CUMULATIVE AMOUNT OF COMPOUND DIFFUSED ACROSS SKIN ([2]; saturated solution in tetraglycol, 72 hours): 6 μg/10 mL

Oc1ccc2ccccc2c1N=Nc1ccccc1 [Sudan I]
CUMULATIVE AMOUNT OF COMPOUND DIFFUSED ACROSS SKIN [1, 3]: 0 μg/10 mL | CUMULATIVE AMOUNT OF COMPOUND DIFFUSED ACROSS SKIN [1, 4]: 72 μg/10 mL | CUMULATIVE AMOUNT OF COMPOUND DIFFUSED ACROSS SKIN ([1]; Table 3, saturated solution in alpha-terpineol, 50 hours): 201 μg/10 mL | CUMULATIVE AMOUNT OF COMPOUND DIFFUSED ACROSS SKIN ([1]; Table 3, saturated solution in alpha-terpineol, 59 hours): 259 μg/10 mL | CUMULATIVE AMOUNT OF COMPOUND DIFFUSED ACROSS SKIN [1, 5]: 0 μg/10 mL | CUMULATIVE AMOUNT OF COMPOUND DIFFUSED ACROSS SKIN [1, 6]: 38 μg/10 mL | CUMULATIVE AMOUNT OF COMPOUND DIFFUSED ACROSS SKIN ([1]; Table 3, saturated solution in isostearic acid, 50 hours): 118 μg/10 mL | CUMULATIVE AMOUNT OF COMPOUND DIFFUSED ACROSS SKIN ([1]; Table 3, saturated solution in isostearic acid, 59 hours): 149 μg/10 mL | CUMULATIVE AMOUNT OF COMPOUND DIFFUSED ACROSS SKIN [1, 7]: 0 μg/10 mL | CUMULATIVE AMOUNT OF COMPOUND DIFFUSED ACROSS SKIN [1, 8]: 31 μg/10 mL | CUMULATIVE AMOUNT OF COMPOUND DIFFUSED ACROSS SKIN ([1]; Table 3, saturated solution in propylene glycol, 50 hours): 108 μg/10 mL | CUMULATIVE AMOUNT OF COMPOUND DIFFUSED ACROSS SKIN ([1]; Table 3, saturated solution in propylene glycol, 59 hours): 142 μg/10 mL | CUMULATIVE AMOUNT OF COMPOUND DIFFUSED ACROSS SKIN [1, 9]: 0 μg/10 mL | CUMULATIVE AMOUNT OF COMPOUND DIFFUSED ACROSS SKIN [1, 10]: 11 μg/10 mL | CUMULATIVE AMOUNT OF COMPOUND DIFFUSED ACROSS SKIN ([1]; Table 3, saturated solution in tetraglycol, 50 hours): 61 μg/10 mL | CUMULATIVE AMOUNT OF COMPOUND DIFFUSED ACROSS SKIN ([1]; Table 3, saturated solution in tetraglycol, 59 hours): 81 μg/10 mL | relative order for membrane diffusion rate [1]: alpha-terpineol>tetraglycol
